Patent publication US20040062800A1, “Sustained release pharmaceutical dosage forms with minimized ph dependent dissolution profiles” (priority 2000, published 2004)
Structures can show the parent of a compound that is named as a salt.

Test: physchem
Format: physicochemical
Settings: 25 °C
Description: Below pH 3, the solubility increased as the pH decreased which is consistent with formation of a more soluble protonated form. […] Above pH 4, the solubility was independent of pH and remained constant (ca. 1.2 mcg/mL) up to pH 8. Above pH 8, the solubility increased with increasing pH which is due to the ionization of the quinazoline moiety.

solubility (aqueous buffer): ~1.2 µg/mL | solubility (pH 0.96, simulated gastric fluid): 236 µg/mL | solubility (pH 11.4, aqueous buffer): 992 µg/mL
SMILES: O=C1CN2Cc3c(ccc(Cl)c3Cl)N=C2N1 [anagrelide HCl]
